Legend:
anergic human T-cells = experiment: Anergic T-cell activation assessed by IFNγ secretion (ionomycin-induced anergy); assay type: cell-based; conditions: anergic T-cells re-challenged with anti-CD3 and anti-CD28 for 24 hours, read-out: IFNγ Fold change from baseline
From the text: Peripheral blood mononuclear cells (PBMC) were obtained either: 1) by using Ficoll-Paque™ (GE Healthcare) for separation of peripheral blood hematopoietic cells from buffy coats of healthy human donors; or 2) directly from LeukoPak donations. Total human primary T-cells were isolated from the PBMCs utilizing negative selection with commercial kits following the manufacturer's protocol (Miltenyi Catalog #130-096-535 (i.e., cocktail of antibodies against surface markers CD14, CD15, CD16, CD19, CD34, CD36, CD56, CD123 and CD235a were incubated with the PBMCs before passing the samples by magnetic beads for removal of cells expressing those surface markers) or StemCells Catalog #17951) to yield >95% CD3+ cells assessed by flow cytometry. The cells were activated with immobilized anti-CD3 antibody (OKT3) and soluble anti-CD28 antibody (28.2) for two days at which time they are washed and allowed to rest for three days in the absence of stimulation. They were then treated with ionomycin (Sigma) for 18-24 hours to induce anergy. Following two washes to remove the ionomycin from the samples, Cbl-b inhibitor compounds were added to the cells at the indicated concentrations (e.g. 10, 1.11 and 0.37 μM) and incubated for 1 hour. The cells were then re-challenged with anti-CD3 antibody and anti-CD28 antibody for 24 hours at which point cell free supernatants were collected and assessed for cytokines (e.g., IFNγ) by ELISA (R&D Systems or Peprotech) or Luminex multiplex kits (Procarta Life Technologies) following manufacturer's protocols.
Cbl-b inhibitors were tested to determine their ability to induce or enhance secretion of cytokines from anergic T-cells (e.g. IFNγ), which is indicative of decreased T-cell tolerance.
Readouts were reported as fold change over baseline. Baseline for this study was the measurement obtained from anergic human T-cells stimulated with immobilized anti-CD3 and soluble anti-CD28, wherein the T-cells were not incubated with a Cbl-b inhibitor (Table 7). For IFNγ changes greater than 2.5-fold over baseline were considered a positive response (Table 7). Compounds were ranked into bins according to their readout as follows for IFNγ: A indicates ≤2.50, B indicates 2.51-4.00 and C indicates >4.01.

primary human B cells = experiment: B cell activation assay (CD69 on anti-IgM stimulated B cells); assay type: cell-based; conditions: AUC of dose response curve (10 μM to 1 nM) of CD69 MFI normalized to DMSO control
Procedure: Peripheral blood mononuclear cells (PBMC) were obtained either: 1) by using Ficoll-Paque™ (GE Healthcare) for separation of peripheral blood hematopoietic cells from buffy coats of healthy human donors; or 2) directly from LeukoPak donations. Human primary B cells were isolated from the PBMCs utilizing negative selection with commercial kits following the manufacturer's protocol (StemCells Catalog #17954) to yield >95% CD20+ cells assessed by flow cytometry. Primary human B cells were plated at 0.7-1×10^5 per well in a 96-well plate with Cbl-b inhibitors over a dose ranging from 10 μM to 1 nM and incubated at 37° C. 5% CO2, with a final DMSO concentration of <0.5%. Cells were stimulated with anti-IgM for 20 hours at 37° C. 5% CO2. Surface activation markers on mature CD20^+ IgD^+ B cells were monitored by FACS using an anti-CD69 antibody (BD Biosciences).
Cbl-b inhibitors were tested to determine their ability to induce or enhance surface expression of cell surface markers on B cells (e.g., CD69), which is indicative of B cell activation.
Readouts were reported as area under curve (AUC) of the dose response curve of CD69 mean fluorescence intensity (MFI) normalized to the DMSO control. Baseline for this study was the measurement obtained from primary human B cells treated with DMSO in the presence of 2.5 μg/mL of anti-IgM-F(ab′)2. […] Compounds were ranked into bins according to their readouts as follows: A indicates ≤0.5, B indicates 0.5-1.00, C indicates 1.01-1.50, and D indicates ≥1.51.

| SMILES | fold induction at 0.37 µM (anergic human T-cells) | fold induction at 1.11 µM (anergic human T-cells) | fold induction at 10 µM (anergic human T-cells) | CD69 MFI AUC (primary human B cells) |
| --- | --- | --- | --- | --- |
| C[C@H](Cc1nncn1C)c1cccc(NC(=O)c2cccc(C(F)(F)F)n2)c1 [Compound 183a, (R)-N-(3-(1-(4-methyl-4H-1,2,4-triazol-3-yl)propan-2-yl)phenyl)-6-(trifluoromethyl)picolinamide] | ≤ 2.5 | 2.51 to 4 | ≤ 2.5 | C (C indicates 1.01-1.50) |
| Cc1cc(C(=O)Nc2cccc([C@H](C)Cc3nncn3C)c2)nc(C2CC2)n1 [Compound 195, (R)-2-cyclopropyl-6-methyl-N-(3-(1-(4-methyl-4H-1,2,4-triazol-3-yl)propan-2-yl)phenyl)pyrimidine-4-carboxamide] | ≤ 2.5 | ≤ 2.5 | ≤ 2.5 | D (D indicates ≥1.51) |
| C[C@H](Cc1nncn1C)c1cccc(N2Cc3c(cccc3C(F)(F)F)C2=O)c1 [Compound 255a, (R)-2-(3-(1-(4-methyl-4H-1,2,4-triazol-3-yl)propan-2-yl)phenyl)-4-(trifluoromethyl)isoindolin-1-one] | ≤ 2.5 | 2.51 to 4 | ≤ 2.5 | C (C indicates 1.01-1.50) |
| C[C@H](Cc1nncn1C)c1cccc(NC(=O)c2n[nH]c3c2CCC3)c1 [Compound 313, (R)-N-(3-(1-(4-Methyl-4H-1,2,4-triazol-3-yl)propan-2-yl)phenyl)-1,4,5,6-tetrahydrocyclopenta[c]pyrazole-3-carboxamide] | ≤ 2.5 | ≤ 2.5 | ≤ 2.5 | B (B indicates 0.5-1.00) |
| Cc1cc(C(=O)Nc2cccc([C@@H](C)Cc3nncn3C)c2)nc(C2CC2)n1 [Compound 325, (S)-2-Cyclopropyl-6-methyl-N-(3-(1-(4-methyl-4H-1,2,4-triazol-3-yl)propan-2-yl)phenyl)pyrimidine-4-carboxamide] | ≤ 2.5 | ≤ 2.5 | ≤ 2.5 | C (C indicates 1.01-1.50) |
| Cn1cnnc1CC1(c2cccc(NC(=O)c3nc4c(C(F)(F)F)cccc4[nH]3)c2)COC1 [Compound 335, N-(3-{3-[(4-methyl-1,2,4-triazol-3-yl)methyl]oxetan-3-yl}phenyl)-4-(trifluoromethyl)-1H-1,3-benzodiazole-2-carboxamide] | ≤ 2.5 | 2.51 to 4 | > 4.01 | B (B indicates 0.5-1.00) |
| Cc1cc(C(=O)Nc2cccc(C3(Cc4nncn4C)COC3)c2)nc(C2CC2)n1 [Compound 336, 2-cyclopropyl-6-methyl-N-(3-(3-((4-methyl-4H-1,2,4-triazol-3-yl)methyl)oxetan-3-yl)phenyl)pyrimidine-4-carboxamide] | 2.51 to 4 | 2.51 to 4 | > 4.01 | D (D indicates ≥1.51) |
| Cc1n[nH]c(C)c1-c1cc2c(c(C(F)(F)F)c1)CN(c1cccc(C3(Cc4nncn4C)COC3)c1)C2=O [Compound 385, 6-(3,5-dimethyl-1H-pyrazol-4-yl)-2-(3-{3-[(4-methyl-4H-1,2,4-triazol-3-yl)methyl]oxetan-3-yl}phenyl)-4-(trifluoromethyl)-2,3-dihydro-1H-isoindol-1-one] | ≤ 2.5 | ≤ 2.5 | > 4.01 | C (C indicates 1.01-1.50) |
| C[C@H](Cc1nncn1C)c1cccc(N2Cc3c(cc(CN4CC(O)C4)cc3C(F)(F)F)C2=O)c1 [Compound 393, (R)-6-((3-hydroxyazetidin-1-yl)methyl)-2-(3-(1-(4-methyl-4H-1,2,4-triazol-3-yl)propan-2-yl)phenyl)-4-(trifluoromethyl)isoindolin-1-one] | ≤ 2.5 | 2.51 to 4 | > 4.01 | B (B indicates 0.5-1.00) |
| C[C@H](Cc1nncn1C)c1cccc(N2Cc3c(cc(CN4CC(C)(O)C4)cc3C(F)(F)F)C2=O)c1 [Compound 397] | ≤ 2.5 | > 4.01 | > 4.01 | B (B indicates 0.5-1.00) |
| C[C@H](Cc1nncn1C)c1cccc(N2Cc3c(cc(CN4CC[C@](C)(O)C4)cc3C(F)(F)F)C2=O)c1 [Compound 398, 6-(((S)-3-hydroxy-3-methylpyrrolidin-1-yl)methyl)-2-(3-((R)-1-(4-methyl-4H-1,2,4-triazol-3-yl)propan-2-yl)phenyl)-4-(trifluoromethyl)isoindolin-1-one] | ≤ 2.5 | > 4.01 | > 4.01 | B (B indicates 0.5-1.00) |
| C[C@H](Cc1nncn1C)c1cccc(N2Cc3c(cc(CN4CC[C@H](F)C4)cc3C(F)(F)F)C2=O)c1 [Compound 399, 6-(((S)-3-fluoropyrrolidin-1-yl)methyl)-2-(3-((R)-1-(4-methyl-4H-1,2,4-triazol-3-yl)propan-2-yl)phenyl)-4-(trifluoromethyl)isoindolin-1-one] | > 4.01 | > 4.01 | > 4.01 | C (C indicates 1.01-1.50) |
| C[C@@H](c1cc2c(c(C(F)(F)F)c1)CN(c1cccc(C3(Cc4nncn4C)COC3)c1)C2=O)N1CC[C@H](F)C1 [Compound 412, 6-((S)-1-((S)-3-fluoropyrrolidin-1-yl)ethyl)-2-(3-(3-((4-methyl-4H-1,2,4-triazol-3-yl)methyl)oxetan-3-yl)phenyl)-4-(trifluoromethyl)isoindolin-1-one] | ≤ 2.5 | > 4.01 | > 4.01 | D (D indicates ≥1.51) |
| C[C@H](c1cc2c(c(C(F)(F)F)c1)CN(c1cccc(C3(Cc4nncn4C)COC3)c1)C2=O)N1CC[C@H](F)C1 [Compound 413, 6-((R)-1-((S)-3-fluoropyrrolidin-1-yl)ethyl)-2-(3-(3-((4-methyl-4H-1,2,4-triazol-3-yl)methyl)oxetan-3-yl)phenyl)-4-(trifluoromethyl)isoindolin-1-one] | 2.51 to 4 | > 4.01 | > 4.01 | C (C indicates 1.01-1.50) |
| Cn1cnnc1CC1(c2cccc(N3Cc4c(cc(CN5CC(F)C5)cc4C(F)(F)F)C3=O)c2)COC1 [Compound 415, 6-((3-fluoroazetidin-1-yl)methyl)-2-(3-(3-((4-methyl-4H-1,2,4-triazol-3-yl)methyl)oxetan-3-yl)phenyl)-4-(trifluoromethyl)isoindolin-1-one] | 2.51 to 4 | 2.51 to 4 | > 4.01 | C (C indicates 1.01-1.50) |
| Cn1cnnc1CC1(c2cccc(N3Cc4c(cc(CN5CC[C@H](C#N)C5)cc4C(F)(F)F)C3=O)c2)COC1 [Compound 422, (S)-1-((2-(3-(3-((4-methyl-4H-1,2,4-triazol-3-yl)methyl)oxetan-3-yl)phenyl)-3-oxo-7-(trifluoromethyl)isoindolin-5-yl)methyl)pyrrolidine-3-carbonitrile] | ≤ 2.5 | 2.51 to 4 | 2.51 to 4 | C (C indicates 1.01-1.50) |

— patent US20220324835A1 (Nurix Therapeutics, Inc., priority 2018, published 2022)
